Test results: article PMC4658560, “Assessment of pharmacokinetic compatibility of short acting CDRI candidate trioxane derivative, 99–411, with long acting prescription antimalarials, lumefantrine and piperaquine” (Scientific Reports, 2015)
Read-outs that look alike come from different tables or passages of the source. One block for each compound: values may come before it.

Columns and labels:
[1] = Pharmacokinetic interaction study, oral administration alone or in combination in rats; type: in vivo, rat; conditions: for AUC(0-inf) / CL/F / Cmax / Tmax / Vd/F / half-life / AUC(0-t): rat, plasma, po
Experimental: Rats were divided into five groups (n = 5, each); three control groups (LUME 10 mg/kg, oral, suspension in 0.25% Sodium CMC; PPQ 50 mg/kg, oral, solution in triple distilled water; and 99–411 70 mg/kg, oral, suspension in 0.25% Sodium CMC) and two co-administration group (70 mg/kg of oral 99–411 & 10 mg/kg of oral LUME; and 70 mg/kg of oral 99–411 & 50 mg/kg of oral PPQ). The rats were fasted overnight (14–16 h) prior to the experiment but given free access to water. Blood samples were collected from the retro-orbital plexus into heparinized microfuge tubes at 0.25, 0.50, 1, 3, 6, 9, 11, 13, 15, 24, 48, 72 and 120 h post-dosing and plasma was harvested by centrifuging the blood at 15000 × g for 10 min and stored frozen at –70 ± 10 °C until bioanalysis. Plasma data were subjected to non-compartmental pharmacokinetics analysis using WinNonlin (version 5.1, Pharsight Corporation, Mountain View, USA). The pharmacokinetic parameters were compared using student’s t test. […] The relative bioavailability (RB%) was calculated according to equation 1 as follows: […]

[2] = Stability in rat plasma (autosampler, bench top, freeze/thaw, long-term freezer); type: in vitro ADME
Experimental: Validation was carried out as per US FDA bioanalytical method validation guidelines. The extraction recovery of analytes, through protein precipitation extraction procedure, was determined by comparing the peak areas of extracted plasma (pre-spiked) standard QC samples (n = 6) to those of the post-spiked standards at equivalent concentrations (QC low, QC medium and QC high concentrations for the analytes and 50 ng/mL for IS). Specificity and selectivity was studied by using independent plasma samples from six different rats to investigate the potential interferences at the LC peak region for analyte and IS, using the proposed extraction procedure and chromatographic–MS conditions. Matrix effect was determined by comparing the responses of the post-extracted plasma standard QC samples (n = 6) with the response of analytes from neat standard samples, for all analytes at LLOQ[22]. Calibration curve was constructed using […] calibration standards of LUME and 99–411 and of PPQ and 99–411 (3.9, 7.8, 15.6, 31.25, 62.5, 125, 250 and 500 ng/mL) by spiking 90 μL of pooled drug free rat plasma with the appropriate working standard solution of the analytes (10 μL). The intra-day assay precision and accuracy were estimated by analyzing six replicates at four the QC levels, i.e., 3.9/7.8, 10, 100 and 400 ng/mL,for both the combinations. The inter-assay precision was determined by analyzing the four levels QC samples on three different runs. The criteria for acceptability of the data included accuracy within ± 15% deviation from the nominal values and a precision of within ± 15% relative standard deviation (R.S.D.), except for LLOQ, where it should not exceed ± 20% of accuracy as well as precision. All stability studies were conducted at two concentration levels, i.e. […] The dilution integrity experiment was performed to validate the dilution test to be carried out on higher analyte concentrations (above the upper limit of quantification), which may be encountered during real subject samples analysis. Dilution integrity experiments were carried out by 20 times dilution of plasma samples containing 8000 ng/mL of LUME and 99–411 and PPQ and 99–411 with blank plasma to obtain samples containing 400 ng/mL of the respective combinations.

human P-gp = target: T1, human P-gp (Homo sapiens, UniProt P08183); test: Human P-gp ATPase assay (vanadate-sensitive ATPase activity); type: biochemical; conditions: concentration not given
T1 construct: purchased BD Gentest (Woburn, MA)

[3] = In situ single-pass intestinal perfusion permeability study; type: in vivo; conditions: male, SD, rat, other: single-pass perfusion through the jejunal lumen, rat jejunum, read-out: effective permeability
Experimental: Single-pass intestinal perfusion studies in rats (n = 5 per group) were performed using established methods adapted from the literature. Briefly, male SD rats were fasted overnight for 12 to 16 h with free access to water and anaesthetized using an intra-peritoneal injection of urethane (1 g/kg) and placed on a heated pad to keep normal body temperature. Upon verification of the loss of pain reflex, a midline longitudinal abdominal incision was made, and the lumen of the jejunum (10 cm) was catherised and flushed with 10 ml of saline pre-warmed to 37 °C. The solution of analytes (10 μM) was prepared in perfusion buffer and passed at a flow rate of 0.2 mL/min through the lumen. After allowing 30 min to reach steady-state outlet concentrations, outlet perfusate samples were collected every 15 min for 120 min perfusion period. Phenol red was used as a marker of osmosis/zero permeability. At the end, the length of segment was measured without stretching and finally the animal was euthanized. Samples were analysed by LC-MS/MS after diluting 20 times with mobile phase.

CYP3A4 = tested on: CYP3A4; design: method as in PMID 21503937, PMID 10727880, PMID 11463111; conditions: cited from earlier work
P-gp = conditions: cited from earlier work
[4] = 50 mg/kg, PPQ 50 mg/kg oral alone (control), rats
[5] = PPQ 50 mg/kg oral co-administered with 99–411 70 mg/kg, rats
[6] = 10 mg/kg, LUME 10 mg/kg oral alone (control), rats
[7] = 10 mg/kg, LUME 10 mg/kg oral co-administered with 99–411 70 mg/kg, rats

T1 sequence (P08183 whole entry): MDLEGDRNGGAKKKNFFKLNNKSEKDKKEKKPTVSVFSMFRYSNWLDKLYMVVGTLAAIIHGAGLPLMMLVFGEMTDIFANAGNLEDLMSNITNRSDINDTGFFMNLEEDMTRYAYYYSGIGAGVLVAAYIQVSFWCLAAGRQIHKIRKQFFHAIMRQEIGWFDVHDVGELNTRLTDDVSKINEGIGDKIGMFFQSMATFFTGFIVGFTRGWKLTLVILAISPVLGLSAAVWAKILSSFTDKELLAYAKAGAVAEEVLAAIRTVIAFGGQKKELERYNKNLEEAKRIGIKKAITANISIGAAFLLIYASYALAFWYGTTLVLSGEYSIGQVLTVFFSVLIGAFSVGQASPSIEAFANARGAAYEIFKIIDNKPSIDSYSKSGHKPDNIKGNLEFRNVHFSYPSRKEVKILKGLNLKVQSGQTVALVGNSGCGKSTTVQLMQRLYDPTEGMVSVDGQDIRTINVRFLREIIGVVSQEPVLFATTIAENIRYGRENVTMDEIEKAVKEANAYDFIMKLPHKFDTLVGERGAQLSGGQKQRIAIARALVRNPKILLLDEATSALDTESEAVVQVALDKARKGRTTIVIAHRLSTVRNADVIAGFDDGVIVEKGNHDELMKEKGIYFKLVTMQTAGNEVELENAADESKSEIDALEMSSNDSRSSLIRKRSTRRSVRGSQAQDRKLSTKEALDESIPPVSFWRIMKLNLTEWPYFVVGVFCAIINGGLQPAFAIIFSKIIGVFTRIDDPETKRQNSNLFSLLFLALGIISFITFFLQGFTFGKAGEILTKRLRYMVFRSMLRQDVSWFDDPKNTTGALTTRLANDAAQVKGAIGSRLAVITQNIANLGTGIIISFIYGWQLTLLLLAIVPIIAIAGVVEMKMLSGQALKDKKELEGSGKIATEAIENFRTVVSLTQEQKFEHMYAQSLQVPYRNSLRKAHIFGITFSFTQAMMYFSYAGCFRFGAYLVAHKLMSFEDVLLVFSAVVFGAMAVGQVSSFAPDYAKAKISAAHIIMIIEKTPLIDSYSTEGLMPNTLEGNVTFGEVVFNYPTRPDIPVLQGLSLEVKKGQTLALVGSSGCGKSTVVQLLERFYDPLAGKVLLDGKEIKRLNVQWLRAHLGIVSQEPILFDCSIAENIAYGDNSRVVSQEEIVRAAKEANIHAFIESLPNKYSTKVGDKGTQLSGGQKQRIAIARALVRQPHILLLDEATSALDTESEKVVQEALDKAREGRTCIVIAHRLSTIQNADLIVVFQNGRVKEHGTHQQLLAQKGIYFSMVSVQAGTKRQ

increase of Vd/F of PPQ with 99–411 co-administration ([1]; oral, rats): 194.49% | increase of clearance (Cl/F) of PPQ with 99–411 co-administration ([1]; oral, rats): 41.94% | decrease of AUC0-∞ of PPQ in presence of 99–411 ([1]; oral, rats, vs PPQ alone, p = 0.0018): 61.39% | decrease of Cmax of PPQ in presence of 99–411 ([1]; oral, rats, vs PPQ alone, p = 0.0154): 61.67% | AUC(0-inf) [1, 4]: 31.5 ± 2.68 µg·h/mL | CL/F [1, 4]: 1.6 L/h/kg | Cmax [1, 4]: 0.89 ± 0.23 µg/mL | Tmax [1, 4]: 6.6 ± 1.34 h | Vd/F [1, 4]: 49 ± 8.38 L/kg | half-life [1, 4]: 21.4 ± 4.39 h | AUC(0-t) ([1]; 50 mg/kg, PPQ 50 mg/kg oral alone (control), rats n=5, mean ± SD): 28.1 ± 2.79 µg·h/mL | AUC(0-inf) [1, 5]: 19.4 ± 5.29 µg·h/mL | AUC(0-t) [1, 5]: 16.9 ± 5.03 µg·h/mL | CL/F [1, 5]: 2.73 L/h/kg | Cmax [1, 5]: 0.54 ± 0.11 µg/mL | Tmax [1, 5]: 6 h | Vd/F [1, 5]: 166 ± 71.7 L/kg | half-life [1, 5]: 41.7 ± 11.8 h | Accuracy (%) in stability test ([2]; PPQ/99-411 method, 10 ng/mL, 6 h (BT, bench top, room temperature)): 99.31% | Accuracy (%) in stability test ([2]; PPQ/99-411 method, 10 ng/mL, 24 h (AS, autosampler)): 105.78% | Accuracy (%) in stability test ([2]; PPQ/99-411 method, 10 ng/mL, 15 days at -70 °C): 106.75% | Accuracy (%) in stability test ([2]; PPQ/99-411 method, 10 ng/mL, FT-3 (three freeze/thaw cycles)): 99.51% | Accuracy (%) in stability test ([2]; PPQ/99-411 method, 400 ng/mL, 6 h (BT, bench top, room temperature)): 102.13% | Accuracy (%) in stability test ([2]; PPQ/99-411 method, 400 ng/mL, 24 h (AS, autosampler)): 102.48% | Accuracy (%) in stability test ([2]; PPQ/99-411 method, 400 ng/mL, 15 days at -70 °C): 103.59% | Accuracy (%) in stability test ([2]; PPQ/99-411 method, 400 ng/mL, FT-3 (three freeze/thaw cycles)): 100.98%
SMILES: Clc1ccc2c(N3CCN(CCCN4CCN(c5ccnc6cc(Cl)ccc56)CC4)CC3)ccnc2c1 [PPQ, piperaquine]

basal ATPase activity in the presence of the negative control (human P-gp): 0.96
SMILES: CC(C)NCC(O)COc1cccc2ccccc12 (centres unmarked) [propranolol]

SMILES: CCCCN(CCCC)CC(O)c1cc(Cl)cc2c1-c1ccc(Cl)cc1/C2=C/c1ccc(Cl)cc1 (centres unmarked) [LUME, lumefantrine]
AUC(0-inf) [1, 6]: 17.4 ± 3.29 µg·h/mL | CL/F [1, 6]: 0.59 L/h/kg | Cmax [1, 6]: 1.81 ± 0.75 µg/mL | Tmax [1, 6]: 3.75 ± 1.5 h | Vd/F [1, 6]: 39.4 ± 6.26 L/kg | half-life [1, 6]: 46.9 ± 6.52 h | AUC(0-t) ([1]; 10 mg/kg, LUME 10 mg/kg oral alone (control), rats n=5, mean ± SD): 16.5 ± 2.96 µg·h/mL | AUC(0-inf) [1, 7]: 16.5 ± 3.51 µg·h/mL | AUC(0-t) [1, 7]: 15.4 ± 3.58 µg·h/mL | CL/F [1, 7]: 0.63 L/h/kg | Cmax [1, 7]: 1.74 ± 0.67 µg/mL | Tmax [1, 7]: 3.6 ± 1.34 h | Vd/F [1, 7]: 46.4 ± 16.4 L/kg | half-life [1, 7]: 50.8 ± 10.2 h | Papp at 120 min, 10 μM ([3]; lumefantrine co-perfused with 99–411, 10 μM): 468 ± 137 nm/s | Papp at 120 min, 10 μM ([3]; lumefantrine control, 10 μM): 403 ± 49 nm/s | Accuracy (%) in stability test ([2]; LUME/99-411 method, 10 ng/mL, 6 h (BT, bench top, room temperature)): 91.73% | Accuracy (%) in stability test ([2]; LUME/99-411 method, 10 ng/mL, 24 h (AS, autosampler)): 98.45% | Accuracy (%) in stability test ([2]; LUME/99-411 method, 10 ng/mL, 15 day at -70 °C): 97.80% | Accuracy (%) in stability test ([2]; LUME/99-411 method, 10 ng/mL, FT-3 (three freeze/thaw cycles)): 91.33% | Accuracy (%) in stability test ([2]; LUME/99-411 method, 400 ng/mL, 6 h (BT, bench top, room temperature)): 95.94% | Accuracy (%) in stability test ([2]; LUME/99-411 method, 400 ng/mL, 24 h (AS, autosampler)): 100.13% | Accuracy (%) in stability test ([2]; LUME/99-411 method, 400 ng/mL, 15 day at -70 °C): 101.30% | Accuracy (%) in stability test ([2]; LUME/99-411 method, 400 ng/mL, FT-3 (three freeze/thaw cycles)): 100.96% | CYP3A4 substrate status (CYP3A4): CYP3A4 substrates | P-gp substrate status (P-gp): P-gp substrate
